# Assay results published in US9963464B2, “Macrocyclic compounds” (Bayer Pharma Aktiengesellschaft, priority 2014, dated 2018).
# Key:
# B16F10 cells = test: Proliferation assay B16F10; type: cell-based, mouse; conditions: Mus musculus, B16-F10, 96 h; 4 days, crystal violet; read-out: Inhibition of B16F10 cell proliferation IC50
# Method: Cultivated tumour cells (HeLa, human cervical tumour cells, ATCC CCL-2; NCI-H460, human non-small cell lung carcinoma cells, ATCC HTB-177; A2780, human ovarian carcinoma cells, ECACC #93112519; DU 145, hormone-independent human prostate carcinoma cells, ATCC HTB-81; HeLa-MaTu-ADR, multidrug-resistant human cervical carcinoma cells, EPO-GmbH Berlin; Caco-2, human colorectal carcinoma cells, ATCC HTB-37; B16F10, mouse melanoma cells, ATCC CRL-6475) were plated at a density of 5,000 cells/well (DU145, HeLa-MaTu-ADR), 3,000 cells/well (NCI-H460, HeLa), 2,500 cells/well (A2780), 1,500 cells/well (Caco-2), or 1,000 cells/well (B16F10) in a 96-well multititer plate in 200 μL of their respective growth medium supplemented 10% fetal calf serum. After 24 hours, the cells of one plate (zero-point plate) were stained with crystal violet (see below), while the medium of the other plates was replaced by fresh culture medium (200 μl), to which the test substances were added in various concentrations (0 μM, as well as in the range of 0.001-10 μM). The cells were incubated for 4 days in the presence of test substances. Cell proliferation was determined by staining the cells with crystal violet: the cells were fixed by adding 20 μl/measuring point of an 11% glutaric aldehyde solution for 15 minutes at room temperature. After three washing cycles of the fixed cells with water, the plates were dried at room temperature. The cells were stained by adding 100 μl/measuring point of a 0.1% crystal violet solution (pH 3.0). After three washing cycles of the stained cells with water, the plates were dried at room temperature. The dye was dissolved by adding 100 μl/measuring point of a 10% acetic acid solution. The extinction was determined by photometry at a wavelength of 595 nm. The change of cell number, in percent, was calculated by normalization of the measured values to the extinction values of the zero-point plate (=0%) and the extinction of the untreated (0 μm) cells (=100%). The IC50 values (inhibitory concentration at 50% of maximal effect) were determined by means of a 4 parameter fit. Non-adherent MOLM-13 human acute myeloid leukemia cells (DSMZ ACC 554) were seeded at a density of 5,000 cells/well in a 96-well multititer plate in 100 μL of growth medium supplemented 10% fetal calf serum. After 24 hours, cell viability of one plate (zero-point plate) was determined with the Cell Titre-Glo Luminescent Cell Viability Assay (Promega), while 50 μL of test compound containing medium was added to the wells of the other plates (final concentrations in the range of 0.001-1 μM and DMSO controls). Cell viability was assessed after 72-hour exposure with the Cell Titre-Glo Luminescent Cell Viability Assay (Promega). IC50 values (inhibitory concentration at 50% of maximal effect) were determined by means of a 4 parameter fit on measurement data which were normalized to vehicle (DMSO) treated cells (=100%) and measurement readings taken immediately before compound exposure (=0%).
# [1] = target: T1, human PTEFb (CDK9/Cyclin T1) (Homo sapiens, UniProt P50750); test: Surface plasmon resonance PTEFb; type: binding; conditions: SPR; for koff: 25° C., below 5E-5 s^-1 not resolvable, read-out: Dissociation rate constant koff; for Target resident time: 1/koff
# T1 construct: purchased ProQinase, Freiburg, Germany
# Text: 8. Surface Plasmon Resonance PTEFb
# The term “surface plasmon resonance”, as used herein, refers to an optical phenomenon that allows for the analysis of the reversible associations of biological molecules in real time within a biosensor matrix, for example using the Biacore® system (GE Healthcare Biosciences, Uppsala, Sweden). Biacore® uses the optical properties of surface plasmon resonance (SPR) to detect alterations in the refractive index of a buffer, which changes as molecules in solution interact with the target immobilized on the surface. In brief, proteins are covalently bound to the dextran matrix at a known concentration and a ligand for the protein is injected through the dextran matrix. Near infrared light, directed onto the opposite side of the sensor chip surface is reflected and also induces an evanescent wave in the gold film, which in turn, causes an intensity dip in the reflected light at a particular angle known as the resonance angle. If the refractive index of the sensor chip surface is altered (e.g. by compound binding to the bound protein) a shift occurs in the resonance angle. This angle shift can be measured.
# The term “KD”, as used herein, is intended to refer to the equilibrium dissociation constant of a particular compound/target protein complex.
# The term “koff”, as used herein, is intended to refer to the off-rate, i.e. the dissociation rate constant of a particular compound/target protein complex.
# The term “target residence time”, as used herein, is intended to refer to the inverse of the rate of dissociation rate constant (1/koff) of a particular compound/target protein complex.
# The ability of the compounds according to the invention to bind human PTEFb may be determined using surface plasmon resonance (SPR). KD values and koff values may be measured using a Biacore® T200 instrument (GE Healthcare, Uppsala, Sweden).
# For SPR measurements, recombinant human PTEFb (CDK9/Cyclin T1 recombinant human active protein kinase purchased from ProQinase, Freiburg, Germany) is immobilized using standard amine coupling (Johnsson B et al, Anal Biochem. 1991 Nov. 1; 198(2):268-77). Briefly, carboxymethylated dextran biosensor chips (CM7, GE Healthcare) are activated with N-ethyl-N′-(3-dimethylaminopropyl)-carbodiimide hydrochloride (EDC) and N-hydroxysuccinimide (NHS) according to the supplier's instructions. Human PTEFb is diluted in 1×HBS-EP+(GE Healthcare) into 30 μg/ml and injected on the activated chip surface. Subsequently, a 1:1 solution of 1 M ethanolamine-HCl (GE Healthcare) and 1×HBS-EP is injected to block unreacted groups, resulting in approximately 4000 response units (RU) of immobilized protein. A reference surface is generated by treatment with NHS-EDC and ethanolamine-HCl. Compounds are dissolved in 100% dimethylsulfoxide (DMSO, Sigma-Aldrich, Germany) to a concentration of 10 mM and subsequently diluted in running buffer (1×HBS-EP+pH 7.4 [generated from HBS-EP+Buffer 10× (GE Healthcare): 0.1 M HEPES, 1.5 M NaCl, 30 mM EDTA and 0.5% v/v Surfactant P20], 1% v/v DMSO). For kinetic measurements, four-fold serial dilutions of compound (0.39 nM to 100 nM) are injected over immobilized protein. Binding kinetics is measured at 25° C. with a flow rate of 50 μl/min in running buffer. Compound concentrations are injected for 60 s followed by a dissociation time of 1800 s. The resulting sensorgrams are double-referenced against the reference surface as well as against blank injections.
# The double-referenced sensorgrams are fit to a simple reversible Langmuir 1:1 reaction mechanism as implemented in the Biacore® T200 evaluation software 2.0 (GE Healthcare). In cases were full compound dissociation has not occurred at the end of the dissociation phase, the Rmax parameter (response at saturation) is fit as local variable. In all other cases, Rmax is fit as global variable.
# T1 sequence (P50750 whole entry): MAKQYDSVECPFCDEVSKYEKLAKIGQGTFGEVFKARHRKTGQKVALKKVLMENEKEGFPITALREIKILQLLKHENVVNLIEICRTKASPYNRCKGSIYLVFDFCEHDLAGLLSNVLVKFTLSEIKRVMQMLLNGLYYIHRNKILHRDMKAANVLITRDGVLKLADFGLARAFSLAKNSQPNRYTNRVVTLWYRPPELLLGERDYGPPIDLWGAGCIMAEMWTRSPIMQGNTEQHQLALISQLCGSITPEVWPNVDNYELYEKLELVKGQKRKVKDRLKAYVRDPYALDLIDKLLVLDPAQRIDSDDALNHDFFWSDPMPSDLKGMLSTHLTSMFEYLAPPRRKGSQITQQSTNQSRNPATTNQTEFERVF
# T1 sequence (O60563 whole entry partner): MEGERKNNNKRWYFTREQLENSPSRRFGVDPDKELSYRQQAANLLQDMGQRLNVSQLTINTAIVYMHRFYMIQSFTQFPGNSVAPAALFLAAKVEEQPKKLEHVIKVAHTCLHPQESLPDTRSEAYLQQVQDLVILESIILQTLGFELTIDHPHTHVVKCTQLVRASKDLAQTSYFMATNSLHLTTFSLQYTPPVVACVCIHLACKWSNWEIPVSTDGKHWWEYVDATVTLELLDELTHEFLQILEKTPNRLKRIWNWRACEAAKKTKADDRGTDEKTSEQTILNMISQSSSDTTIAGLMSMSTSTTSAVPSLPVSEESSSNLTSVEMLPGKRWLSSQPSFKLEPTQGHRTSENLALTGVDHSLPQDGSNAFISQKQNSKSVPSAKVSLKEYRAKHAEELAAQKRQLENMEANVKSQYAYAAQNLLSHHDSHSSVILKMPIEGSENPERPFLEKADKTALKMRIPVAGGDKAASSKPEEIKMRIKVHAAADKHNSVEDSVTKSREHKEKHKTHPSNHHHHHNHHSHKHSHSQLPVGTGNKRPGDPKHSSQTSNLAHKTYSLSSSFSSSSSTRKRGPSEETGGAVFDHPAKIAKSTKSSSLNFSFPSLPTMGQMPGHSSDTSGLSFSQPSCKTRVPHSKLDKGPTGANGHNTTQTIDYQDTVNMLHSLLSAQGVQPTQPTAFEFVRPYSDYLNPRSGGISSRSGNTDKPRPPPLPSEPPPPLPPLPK
IC50 (B16F10 cells),koff [1],Target resident time [1],Compound
7 nM,< 5e-05 s⁻¹,>333 min,"CS(=N)(=O)Cc1cc2nc(c1)OCCCOc1cc(F)ccc1-c1cc(ncc1F)N2 (single isomer, unassigned; enantiomer 1) [Example 6, 15,19-Difluoro-8-[(S-methylsulfonimidoyl)methyl]-3,4-dihydro-2H,11H-10,6-(azeno)-12,16-(metheno)-1,5,11,13-benzodioxadiazacyclooctadecine; Enantiomer 1]"
343 nM,< 5e-05 s⁻¹,>333 min,"CSCc1cc2nc(c1)OCCCCOc1cc(F)ccc1-c1cc(ncc1F)N2 [Example 12, 16,20-Difluoro-9-[(methylsulfanyl)methyl]-2,3,4,5-tetrahydro-12H-11,7-(azeno)-13,17-(metheno)-1,6,12,14-benzodioxadiazacyclononadecine]"
81 nM,< 5e-05 s⁻¹,>333 min,"CSCc1cc2nc(c1)OCCCOc1cc(F)ccc1-c1cc(ncc1F)N2 [Example 3, 15,19-Difluoro-8-[(methylsulfanyl)methyl]-3,4-dihydro-2H,11H-10,6-(azeno)-12,16-(metheno)-1,5,11,13-benzodioxadiazacyclooctadecine]"
